From patent publication US20070099983A1, “Aminocyclohexyl ether compounds and uses thereof” (Cardiome Pharma Corp., priority 2003, published 2007) come the findings set out here.

The experiment concerns sustained AF maintained during continuous vagal nerve stimulation. Description: Canine vagal-AF model: termination of sustained AF. The note with it: IV, anesthetized dogs. The class given is in vivo, dog. Here is the method: St.-Georges et al., 1997). Dogs are ventilated mechanically with room air supplemented with oxygen via an endotracheal tube at 20 to 25 breaths/minute with a tidal volume obtained from a monogram. […] Catheters are inserted into the femoral artery for blood pressure recording and blood gas measurement, and into both femoral veins for drug administration and venous sampling. […] Body temperature is maintained at 37-40° C. with a heating blanket. The heart is exposed via a medial thoracotomy and a pericardial cradle is created. […] Drug effects to terminate sustained AF maintained during continuous vagal nerve stimulation are assessed. […] The vagal stimulation voltage is adjusted under control conditions, and then readjusted after each treatment to maintain the same bradycardic effect. […] Diastolic threshold and ERP are determined in duplicate and averaged to give a single value. […] The interval between the stimulus artefact and the peak of the local electrogram is measured as an index of conduction velocity. […] The stimulus voltage-heart rate relationship for vagal nerve stimulation is determined under control conditions in most experiments. […] After the termination of AF, the diastolic threshold and ERP of the atrium and ventricle are determined. […] Group data are expressed as the mean±SEM. […]

Consider `O=C(NCC1CCCCN1)c1cc(OCC(F)(F)F)ccc1OCC(F)(F)F` (centres unmarked) [Flecainide], for which the “Median dose required for termination of AF” value turned out to be 2.5 µmol/kg. Besides, the “Mean dose required for termination of AF” value (mean±EM) was 4 ± 2 µmol/kg.
